How the values were obtained:
[1] = test system: human promonocytic lymphoma cells (U937); experiment: Microculture indicator system (MIS), MTT growth inhibition assay with bivariate serial dilutions; format: cell-based
Method: Microcultures of human promonocytic lymphoma cells (U937) (“the U937 cells”) originally obtained from the American Type Culture Collection (CRL 1593) and later grown by Dr. K. Zoon at the FDA in Bethesda, Md. were set up in a multiwell plate with serial two-fold dilutions of dThd in tissue culture growth medium (RPMI 1640 plus 10% Nurserum and antibiotics). The volume of medium per well was 100 μl and the cell number per well was about 1×10^5. The plate was incubated at 37° C. for 24 hr.
A dye, 3-[4,5-dimethylthiazol-2-yl]-2,5-diphenyl-tetrazolium bromide (MTT), was used as a chromogenic indicator of the metabolically active cell mass. Viable cells metabolize the dye and accumulate a reduced formazan product (blue color) which is solubilized for colorimetry. Mossman T, J. Immunol. Methods 5:55-63 (1983); Li L and Lau B H S, In Vitro Cell Dev. Biol. 29A:531-536 (1993). The MTT assay has been established as useful for measuring either growth inhibition or population killing. Plowman, supra. The MTT method is ideal for cells tested in suspension growth, and can also be used for some cells growing in monolayers. […] Alley, supra; Hofs, supra; Wilson J K et al., Br. J. Cancer 62:189-94 (1990); Plowman, supra.
Thirty μl of 0.5% MTT in phosphate buffered saline was added to each microculture well at the appropriate time. After incubation at 37° C. for 3 hr, 120 μl of an aqueous solution of 10 % SDS with 0.01 N HCl was added to release and dissolve formazan product. This was accomplished by overnight incubation of the plate at 37° C. After careful mixing of the microwell contents by placing the plates on an orbital shaker for 5 minutes the absorbencies were quantitated by spectrophotometry at 570 nm with a Ceres UV 900 HDI microwell plate reader (from Biotek Instruments Inc, Winooski, Vt. 05404-0998). Absorbance data was normalized to a blank well containing all reagents without cells and was collected semi-automatically.
Flat-bottom 96-well plates of tissue culture quality (Corning or Costar) were set up with two-fold serial dilutions of each agent to be tested, e.g., the RA and TCI, using a multichannel pipettor with adjustable volume, e.g., Costar or Rainin, to perform serial mixing. This set-up is diagrammed in FIG. 12. […] In each plate, a total of 59 wells then contained bivariate agent combinations, the bivariate serial dilutions.
Agents were serially diluted by serial mixing in two separate plates or series of wells, and then were combined prior to addition of a fixed volume and density of the U937 cells in a suspension calculated to deliver about 1×10^5 cells per well.
Cells were added after serial dilutions of the dThd had been dispensed. Cells were dispensed at about 10×10^4 cells per microwell to provide optimal sensitivity of detection of cell damage in subsequent calorimetric assays. […] The final volume of medium was 100 μl/well. The plates were further incubated at 37° C. for a total duration of 18-24 h. The dye MTT was used as a chromogenic indicator of the residual and metabolically active cell mass. (Described in Example 1).
In this MTT assay, normalized absorbance data was collected semi-automatically from each microculture well with a Ceres UV 900 HD1 plate reader, from Biotek Instruments Inc., Winooski, V T 05404-0998, stored in an EIA file under the Ceres 900 program, transferred in comma delimited format to a floppy diskette, and imported into a spread sheet program (Borland Quattro Pro) for data manipulations.

U937 cells [2] = experiment: Flow cytometric cell cycle analysis (propidium iodide); format: cell-based, human
Method: Flow cytometric analyses were performed with a Coulter Epics System (purchased from Coulter Corp, Hialeah, Fla.). Cells were disrupted in buffer with 0.1% Triton-X 100 (or 0.6 % NP-40), so that the nuclei could be stained with 0.05% propidium iodide (PI). See Shapiro N M, Practical Flow Cytometry, Man R Liss, NY (1988); Nicoletti I et al., J Immunol Methods 139:271-9 (1991). Analyses of 10,000 nuclei were performed with graduated concentrations of dThd at serial time points. Histograms of PI fluorescent emissions at 675±10 nm were used to discriminate cell cycle fractions of the target population. The proportion of cells in each phase of the cell cycle is represented by stack bars above the X-axis as a fraction of those cells with intact DNA structure. The fraction of cells with depleted DNA in each sample is represented below the X-axis as a percentage of the total cell number. Cells with depleted DNA are presumed apoptotic. Crompton S T et. al. Biophys. Biochem. Res. Comm. 183:532-537 (1992). Each stack bar in FIG. 5 represents the cell cycle distribution of a population sample of >10,000 cells, analyzed for each indicated dThd concentration at indicated treatment times.
Flow cytometric analyses were performed as in Example 2. The results are shown in plot A of FIG. 5 from Example 2.
The U937 cells were exposed to a range of concentrations below the IC40 and sampled for flow cytometry at intervals of 8, 16, and 24 hours. Flow cytometric analysis was performed as described in Example 2.

p. falciparum W2 = experiment: Parasite growth by 3H-hypoxanthine uptake in infected erythrocytes; format: cell-based; settings: Plasmodium falciparum, W2, Erythrocyte; 24 hr after RBC infection, 3H-hypoxanthine uptake; read-out: inhibitory concentrations (IC50), strain W2
p. falciparum D6 = experiment: as above; format: cell-based; settings: Plasmodium falciparum, D6, Erythrocyte; 24 hr after RBC infection, 3H-hypoxanthine uptake; read-out: inhibitory concentrations (IC50), strain D6
[3] = test system: Burkitt's lymphoma cell line Raji; experiment: MIS MTT growth inhibition assay; format: cell-based, human; settings: total 24 Hours
[4] = after oral ingestion; cited from earlier work
U937 cells [5] = experiment: DNA gel electrophoresis for DNA fragmentation (apoptosis); format: cell-based, human
Method: Samples of the U937 cells were exposed to a series of concentrations of dThd for 24 hr. Their DNA was isolated by lysis of cell samples in TE buffer containing TRIS 10 mM, EDTA 10 mM, SDS 0.5% and proteinase K 200 μg/ml at […] for 2 h. The proteins were precipitated in a IM solution of NaCl and centrifuged at 2,500×g for 30 min at […] DNAse free RNase (25 μg/ml) was added to the supernatant and incubated for 30 min at 37° C. Spectrophotometric quantitation of the DNA in the supernatant was quantitated by absorbance spectrophotometry at 260 nm. Volumes adjusted to contain equal amounts of DNA were mixed with a loading buffer of 40% (w/v) sucrose, 0.1M EDTA pH 8.0, 0.5% (w/v) sodium lauryl sulphate and 0.05% (w/v) bromophenol blue. […] Separated bands of DNA were stained with ethidium bromide and photographed in UV light (Fotodyne Inc.). […] The lowest molecular weight (about 180 bp) was determined with a standard 123 bp ladder from Sigma Chemical Co. (Cat. #D5042). The result shown is a classical “DNA ladder,” characteristic of the fragmentation of DNA macromolecules in apoptosis. See Tomei, supra; Obeid, supra; Gold, supra.

[6] = Homo sapiens, U-937, 4 h, U937, HU […] 4 H, K252a 0, read-out: MTT % inhibition, HU only

With O=c1[nH]c(=O)n([C@H]2C[C@H](O)[C@@H](CO)O2)cc1Br [BrdU, bromodeoxyuridine] the “RA concentration for STSP potentiation relative to concentration causing cell cycle arrest” value ([1]; U937) was “at least one log lower”, the “Growth inhibition (MTT), BrdU 0.01 mM (ninth dilution)” value ([1]; U937, BrdU 0.01 mM (c19) for 4 H, STSP for 18 H, total 22 H, STSP nM rows r7-r12: 200,100,60,26,12.6,6.25, r14 BrdU alone) was 4% and the “Growth inhibition (MTT), BrdU 0.01 mM (tenth, last dilution)” value ([1]; U937, BrdU 0.01 mM (c21, last dilution) for 4 H, STSP for 18 H, total 22 H, STSP nM rows r7-r12: 200,100,60,26,12.6,6.25, r14 BrdU alone) was 4%. For the same molecule, the “Combined results ratio (CRR), BrdU 0.02 mM” value ([1]; U937, BrdU 0.02 mM for 4 H, STSP for 18 H, total 22 H, STSP nM rows r7-r12: 200,100,60,26,12.6,6.25, r13 BrdU alone) was 1.0, the “Growth inhibition (MTT), BrdU 0.02 mM” value ([1]; U937, BrdU 0.02 mM for 4 H, STSP for 18 H, total 22 H, STSP nM rows r7-r12: 200,100,60,26,12.6,6.25, r14 BrdU alone) was 5% and the “Combined results ratio (CRR), BrdU 0.06 mM” value ([1]; U937, BrdU 0.06 mM for 4 H, STSP for 18 H, total 22 H, STSP nM rows r7-r12: 200,100,60,26,12.6,6.25, r13 BrdU alone) was 1.0. For the same molecule, the “Growth inhibition (MTT), BrdU 0.06 mM” value ([1]; U937, BrdU 0.06 mM for 4 H, STSP for 18 H, total 22 H, STSP nM rows r7-r12: 200,100,60,26,12.6,6.25, r14 BrdU alone) was 10%, the “Combined results ratio (CRR), BrdU 0.09 mM” value ([1]; U937, BrdU 0.09 mM for 4 H, STSP for 18 H, total 22 H, STSP nM rows r7-r12: 200,100,60,26,12.6,6.25, r13 BrdU alone) was 1.0 and the “Growth inhibition (MTT), BrdU 0.09 mM” value ([1]; U937, BrdU 0.09 mM for 4 H, STSP for 18 H, total 22 H, STSP nM rows r7-r12: 200,100,60,26,12.6,6.25, r14 BrdU alone) was 21%. For the same molecule, the “Combined results ratio (CRR), BrdU 3.00 mM” value ([1]; U937, BrdU 3.00 mM for 4 H, STSP for 18 H, total 22 H, STSP nM rows r7-r12: 200,100,60,26,12.6,6.25, r13 BrdU alone) was 1.0, the “Growth inhibition (MTT), BrdU 3.00 mM” value ([1]; U937, BrdU 3.00 mM for 4 H, STSP for 18 H, total 22 H, STSP nM rows r7-r12: 200,100,60,26,12.6,6.25, r14 BrdU alone) was 61% and the “Combined results ratio (CRR), BrdU […]” value ([1]; U937, BrdU […] for 4 H, STSP for 18 H, total 22 H, STSP nM rows r7-r12: 200,100,60,26,12.6,6.25, r13 BrdU alone) was 1.0. The “Effect on S phase” value (U937 cells [2]; bivariate flow cytometry, PI and fluorescein-labelled antibody to BrdU) was “produced a slowing of S phase similar to that caused by dThd”.
With NC(=O)NO [HU, hydroxyurea] the inhibition at 10 µM ([1]; Homo sapiens, U-937, 4 h, U937, HU 0.01 mM 4 H, K252a 0, read-out: MTT % inhibition, HU only) was -1%, the inhibition at 20 µM ([1]; Homo sapiens, U-937, 4 h, U937, HU 0.02 mM 4 H, K252a 0, read-out: MTT % inhibition, HU only) was -1% and the inhibition at 30 µM ([1]; Homo sapiens, U-937, 4 h, U937, HU 0.03 mM 4 H, K252a 0, read-out: MTT % inhibition, HU only) was 1%. The inhibition at 60 µM ([1]; Homo sapiens, U-937, 4 h, U937, HU 0.06 mM 4 H, K252a 0, read-out: MTT % inhibition, HU only) was 9%, the inhibition at 500 µM ([1]; Homo sapiens, U-937, 4 h, U937, HU 0.50 mM 4 H, K252a 0, read-out: MTT % inhibition, HU only) was 48% and the inhibition at 1000 µM ([1]; Homo sapiens, U-937, 4 h, U937, HU 1.00 mM 4 H, K252a 0, read-out: MTT % inhibition, HU only) was 52%. For the same molecule, the inhibition at 2000 µM ([1]; Homo sapiens, U-937, 4 h, U937, HU 2.00 mM 4 H, K252a 0, read-out: MTT % inhibition, HU only) was 59%, the inhibition at 130 µM [1, 6] was 20% and the inhibition at 250 µM [1, 6] was 36%. The “Enhancement of DEET-induced apoptosis as prospective RA” value ([1]; MTT tests, about 0.05 to 3 mM, preliminary results) was “no significant enhancement of the DEET-induced apoptosis”, the “MTT % inhibition, HU only” value ([1]; U937, HU 0.00 mM (so in the source) 4 H, K252a 0) was −2% and the “Cells that became DNA depleted” value (U937 cells [2]; 0.125-1 mM HU, up to 16 hr, U937) was “no more than 20%”. The “Cells with depleted DNA” value (U937 cells [2]; HU>1 mM (2 mM at 24 hr), U937) was “a major increase in cells with depleted DNA became evident”, the IC50 (p. falciparum W2) was 219 µM and the IC50 (p. falciparum D6) was 175 µM. For the same molecule, the “Growth Inhibition” value ([3]; HU only 0.00 mM) was −3%, the “Growth Inhibition” value ([3]; HU only 0.01 mM) was −0% and the “Growth Inhibition” value ([3]; HU only 0.02 mM) was −7%. The “Growth Inhibition” value ([3]; HU only 0.03 mM) was −7%, the “Growth Inhibition” value ([3]; HU only 0.05 mM) was −7% and the “Growth Inhibition” value ([3]; HU only 0.50 mM) was 0%. The “Growth Inhibition” value ([3]; HU only 1.00 mM) was 0%, the “Growth Inhibition” value ([3]; HU only 2.00 mM) was 17% and the “Time of blood level peak” value [4] was 2 to 4 h.
With CCCCCCCCCCCCCC(=O)O[C@@H]1[C@@H](C)[C@@]2(O)[C@@H](C=C(CO)C[C@]3(O)C(=O)C(C)=C[C@@H]23)[C@H]2C(C)(C)[C@]12OC(C)=O [TPA, 12-0-tetradecanoyl-phorbol-13-acetate] the “Effect on dThd potentiation of STSP DNA fragmentation” value (U937 cells [5]; 10 nM TPA 48 hours differentiation, then dThd […], STSP 25 nM 7 hours) was “significantly reduced dThd potentiation of DNA fragmentation during STSP treatment”.
In the case of Nc1ccn([C@H]2C[C@H](O)[C@@H](CO)O2)c(=O)n1 [dCyt, deoxycytidine], the “Effect on DNA fragmentation by dThd and STSP” value (U937 cells [5]; dCyt added to U937 cultures treated with dThd and STSP) is reported as “decreased DNA fragmentation”.
For bleomycin, the “Combined results ratio, bleomycin only” value ([1]; MTT #523, total 20 Hours, bleomycin 16 Hours, no STSP, bleomycin mU by row: r9 160, r10 80, r11 40, r12 20, r13 10, r14 5) was 1.0.

From patent US6455593B1, “Method of dynamic retardation of cell cycle kinetics to potentiate cell damage” (priority 1995, dated 2002)
